Reference: the kinase profiling compilation of Christmann-Franck et al. (2016)

Tests used:
Test in all cases: Caliper, Mobility shift assay off-chip
[1] = biological target: SRMS (human) (UniProt Q9H3Y6)
[2] = biological target: NEK6 (human) (UniProt Q9HC98)
[3] = biological target: CDC42BPB (human) (UniProt Q9Y5S2)
[4] = biological target: CDK7 (human) (UniProt P50613)
[5] = biological target: PDK4 (human) (UniProt Q16654)
[6] = biological target: BTK (human) (UniProt Q06187)
[7] = biological target: EPHA2 (human) (UniProt P29317)
[8] = biological target: EPHA3 (human) (UniProt P29320)
[9] = biological target: PIM1 (human) (UniProt P11309)
[10] = biological target: RPS6KA6 KD1 KD2 (human) (UniProt Q9UK32)
[11] = biological target: TAB1 (human) (UniProt Q15750)
[12] = biological target: PRKCZ (human) (UniProt Q05513)
[13] = biological target: MINK1 (human) (UniProt Q8N4C8)
[14] = biological target: MAP4K2 (human) (UniProt Q12851)
Sequence of MAP4K2 (human) (Q12851 whole entry, looked up): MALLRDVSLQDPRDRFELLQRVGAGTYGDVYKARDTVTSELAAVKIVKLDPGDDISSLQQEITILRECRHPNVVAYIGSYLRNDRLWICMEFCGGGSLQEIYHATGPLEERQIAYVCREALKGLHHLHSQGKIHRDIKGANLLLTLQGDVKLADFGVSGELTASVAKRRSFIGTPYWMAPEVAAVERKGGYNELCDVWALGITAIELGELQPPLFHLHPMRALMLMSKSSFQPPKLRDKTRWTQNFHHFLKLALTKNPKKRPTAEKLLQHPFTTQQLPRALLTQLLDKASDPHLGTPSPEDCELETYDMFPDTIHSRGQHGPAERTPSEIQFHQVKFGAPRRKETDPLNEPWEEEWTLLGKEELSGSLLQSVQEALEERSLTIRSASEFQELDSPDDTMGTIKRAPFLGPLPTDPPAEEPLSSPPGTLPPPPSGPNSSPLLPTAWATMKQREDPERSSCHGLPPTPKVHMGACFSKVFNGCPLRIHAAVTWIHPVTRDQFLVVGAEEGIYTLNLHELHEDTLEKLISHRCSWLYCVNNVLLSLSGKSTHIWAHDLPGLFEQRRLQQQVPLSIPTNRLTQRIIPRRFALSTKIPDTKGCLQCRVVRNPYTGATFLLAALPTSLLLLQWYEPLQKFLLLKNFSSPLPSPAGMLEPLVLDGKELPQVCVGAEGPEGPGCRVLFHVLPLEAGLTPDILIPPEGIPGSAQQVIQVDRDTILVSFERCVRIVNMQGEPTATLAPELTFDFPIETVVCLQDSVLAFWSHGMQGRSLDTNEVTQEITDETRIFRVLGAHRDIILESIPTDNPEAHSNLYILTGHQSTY

[15] = biological target: STK38L (human) (UniProt Q9Y2H1)
[16] = biological target: ROCK1 (human) (UniProt Q13464)
[17] = biological target: AKT1 (human) (UniProt P31749)
[18] = biological target: PHKG1 (human) (UniProt Q16816)
[19] = biological target: PHKG2 (human) (UniProt P15735)
[20] = biological target: PIK3CA PIK3R1 (human) (UniProt P27986+P42336)
Sequence of PIK3CA PIK3R1 (human) (P27986 whole entry, looked up): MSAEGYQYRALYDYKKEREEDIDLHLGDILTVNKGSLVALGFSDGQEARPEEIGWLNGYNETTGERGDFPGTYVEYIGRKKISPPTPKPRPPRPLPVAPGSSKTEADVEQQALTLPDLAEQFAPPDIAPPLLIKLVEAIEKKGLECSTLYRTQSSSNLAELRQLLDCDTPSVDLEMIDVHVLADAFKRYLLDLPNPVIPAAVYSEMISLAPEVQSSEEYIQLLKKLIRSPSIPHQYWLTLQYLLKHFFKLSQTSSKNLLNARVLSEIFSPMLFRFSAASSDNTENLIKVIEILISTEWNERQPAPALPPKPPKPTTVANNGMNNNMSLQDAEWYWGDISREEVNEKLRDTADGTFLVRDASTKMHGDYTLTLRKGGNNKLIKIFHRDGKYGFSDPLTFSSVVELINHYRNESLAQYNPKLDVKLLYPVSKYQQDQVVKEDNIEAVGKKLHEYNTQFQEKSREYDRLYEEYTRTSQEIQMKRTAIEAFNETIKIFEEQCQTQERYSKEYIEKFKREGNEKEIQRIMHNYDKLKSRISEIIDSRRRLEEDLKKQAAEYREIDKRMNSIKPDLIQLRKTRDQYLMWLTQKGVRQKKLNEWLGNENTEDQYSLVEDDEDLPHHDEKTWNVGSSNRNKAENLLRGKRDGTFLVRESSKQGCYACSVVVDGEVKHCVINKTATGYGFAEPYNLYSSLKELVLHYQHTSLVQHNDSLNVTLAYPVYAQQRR
Sequence of PIK3CA PIK3R1 (human) (P42336 whole entry, looked up): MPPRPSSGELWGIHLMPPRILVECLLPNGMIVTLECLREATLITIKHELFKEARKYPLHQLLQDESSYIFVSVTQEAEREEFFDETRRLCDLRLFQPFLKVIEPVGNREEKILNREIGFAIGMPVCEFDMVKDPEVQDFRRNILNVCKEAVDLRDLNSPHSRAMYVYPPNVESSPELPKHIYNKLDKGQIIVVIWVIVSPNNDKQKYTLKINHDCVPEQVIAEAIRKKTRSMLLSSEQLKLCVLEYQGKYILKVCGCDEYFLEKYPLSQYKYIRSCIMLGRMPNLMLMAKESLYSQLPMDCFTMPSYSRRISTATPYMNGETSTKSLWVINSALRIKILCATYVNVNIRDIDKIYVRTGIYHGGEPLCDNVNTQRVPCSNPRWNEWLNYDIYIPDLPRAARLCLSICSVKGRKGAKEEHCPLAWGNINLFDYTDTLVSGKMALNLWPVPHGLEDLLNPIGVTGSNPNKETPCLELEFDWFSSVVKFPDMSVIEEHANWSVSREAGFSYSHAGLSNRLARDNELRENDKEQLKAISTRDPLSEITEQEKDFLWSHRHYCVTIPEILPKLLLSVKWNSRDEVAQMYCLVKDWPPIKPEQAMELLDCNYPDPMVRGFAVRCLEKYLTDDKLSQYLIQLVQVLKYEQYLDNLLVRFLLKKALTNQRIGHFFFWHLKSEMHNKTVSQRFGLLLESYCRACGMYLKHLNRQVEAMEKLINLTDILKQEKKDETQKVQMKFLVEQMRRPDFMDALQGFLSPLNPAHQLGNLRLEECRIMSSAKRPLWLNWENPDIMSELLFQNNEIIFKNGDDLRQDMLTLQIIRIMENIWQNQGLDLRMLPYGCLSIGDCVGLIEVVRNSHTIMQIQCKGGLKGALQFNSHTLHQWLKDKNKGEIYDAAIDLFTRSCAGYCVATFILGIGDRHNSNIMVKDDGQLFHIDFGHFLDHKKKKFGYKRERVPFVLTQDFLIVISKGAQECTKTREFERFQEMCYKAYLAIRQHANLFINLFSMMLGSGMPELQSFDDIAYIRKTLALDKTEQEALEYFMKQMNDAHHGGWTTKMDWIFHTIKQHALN

[21] = biological target: RPS6KA5 KD1 KD2 (human) (UniProt O75582); conditions: compound 0.02 µM
[22] = biological target: STK10 (human) (UniProt O94804)
[23] = biological target: TEK (human) (UniProt Q02763)
[24] = biological target: NIM1 (human) (UniProt Q8IY84)
Sequence of NIM1 (human) (Q8IY84 whole entry, looked up): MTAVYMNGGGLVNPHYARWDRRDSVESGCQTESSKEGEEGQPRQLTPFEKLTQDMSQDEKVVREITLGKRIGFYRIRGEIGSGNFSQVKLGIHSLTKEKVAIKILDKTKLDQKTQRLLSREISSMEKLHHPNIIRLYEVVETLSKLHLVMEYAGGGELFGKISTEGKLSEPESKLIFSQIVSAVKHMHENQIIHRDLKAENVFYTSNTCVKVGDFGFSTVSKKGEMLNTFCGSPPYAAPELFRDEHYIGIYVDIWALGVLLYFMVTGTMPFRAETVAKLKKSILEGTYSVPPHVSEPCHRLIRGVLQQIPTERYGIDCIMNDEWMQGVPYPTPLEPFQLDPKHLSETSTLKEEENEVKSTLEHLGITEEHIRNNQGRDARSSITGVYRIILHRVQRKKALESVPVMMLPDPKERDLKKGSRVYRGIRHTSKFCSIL

[25] = biological target: SPHK1 (human) (UniProt Q9NYA1)
[26] = biological target: NEK2 (human) (UniProt P51955)
Sequence of NEK2 (human) (P51955 whole entry, looked up): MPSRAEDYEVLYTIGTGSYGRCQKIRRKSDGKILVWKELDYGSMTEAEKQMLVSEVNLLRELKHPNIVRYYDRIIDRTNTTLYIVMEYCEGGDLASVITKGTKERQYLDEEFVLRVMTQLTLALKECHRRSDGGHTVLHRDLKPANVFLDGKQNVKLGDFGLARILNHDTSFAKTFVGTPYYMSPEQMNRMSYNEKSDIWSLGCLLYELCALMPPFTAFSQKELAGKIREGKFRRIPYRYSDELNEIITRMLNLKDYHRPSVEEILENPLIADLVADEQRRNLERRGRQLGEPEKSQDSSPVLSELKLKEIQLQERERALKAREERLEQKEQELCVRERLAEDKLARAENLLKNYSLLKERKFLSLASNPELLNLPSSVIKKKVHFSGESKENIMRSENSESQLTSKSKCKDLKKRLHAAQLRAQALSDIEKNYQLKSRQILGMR

[27] = biological target: PRKACA (human) (UniProt P17612)
[28] = biological target: FRK (human) (UniProt P42685)
Sequence of FRK (human) (P42685 whole entry, looked up): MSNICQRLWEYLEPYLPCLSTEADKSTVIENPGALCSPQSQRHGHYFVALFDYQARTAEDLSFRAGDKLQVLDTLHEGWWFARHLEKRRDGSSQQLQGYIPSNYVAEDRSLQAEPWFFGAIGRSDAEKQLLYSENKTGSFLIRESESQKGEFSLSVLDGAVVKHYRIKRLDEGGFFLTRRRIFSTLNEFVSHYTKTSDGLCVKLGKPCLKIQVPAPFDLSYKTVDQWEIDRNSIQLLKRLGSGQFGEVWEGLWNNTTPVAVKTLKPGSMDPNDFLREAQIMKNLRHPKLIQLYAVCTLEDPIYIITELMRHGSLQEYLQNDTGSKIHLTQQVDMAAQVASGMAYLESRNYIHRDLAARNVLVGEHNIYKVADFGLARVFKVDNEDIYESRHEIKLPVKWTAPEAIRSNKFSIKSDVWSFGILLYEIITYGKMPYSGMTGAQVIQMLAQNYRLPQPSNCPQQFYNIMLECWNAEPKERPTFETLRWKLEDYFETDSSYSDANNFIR

[29] = biological target: TBK1 (human) (UniProt Q9UHD2)
[30] = biological target: ALK NPM1 (human) (UniProt P06748+Q9UM73)
[31] = biological target: SGK1 (human) (UniProt O00141)
[32] = biological target: CLK2 (human) (UniProt P49760)
[33] = biological target: PTK2 (human) (UniProt Q05397)

Sequence of NEK6 (human) (Q9HC98 whole entry, looked up): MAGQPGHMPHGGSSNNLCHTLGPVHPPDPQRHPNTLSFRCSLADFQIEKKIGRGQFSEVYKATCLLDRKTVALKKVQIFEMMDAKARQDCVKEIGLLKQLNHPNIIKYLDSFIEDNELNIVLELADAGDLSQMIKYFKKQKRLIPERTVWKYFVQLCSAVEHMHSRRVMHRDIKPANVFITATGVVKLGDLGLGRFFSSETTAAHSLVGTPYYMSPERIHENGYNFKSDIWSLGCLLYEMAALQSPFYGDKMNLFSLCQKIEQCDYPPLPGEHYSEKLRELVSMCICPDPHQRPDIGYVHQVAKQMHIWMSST
Sequence of BTK (human) (Q06187 whole entry, looked up): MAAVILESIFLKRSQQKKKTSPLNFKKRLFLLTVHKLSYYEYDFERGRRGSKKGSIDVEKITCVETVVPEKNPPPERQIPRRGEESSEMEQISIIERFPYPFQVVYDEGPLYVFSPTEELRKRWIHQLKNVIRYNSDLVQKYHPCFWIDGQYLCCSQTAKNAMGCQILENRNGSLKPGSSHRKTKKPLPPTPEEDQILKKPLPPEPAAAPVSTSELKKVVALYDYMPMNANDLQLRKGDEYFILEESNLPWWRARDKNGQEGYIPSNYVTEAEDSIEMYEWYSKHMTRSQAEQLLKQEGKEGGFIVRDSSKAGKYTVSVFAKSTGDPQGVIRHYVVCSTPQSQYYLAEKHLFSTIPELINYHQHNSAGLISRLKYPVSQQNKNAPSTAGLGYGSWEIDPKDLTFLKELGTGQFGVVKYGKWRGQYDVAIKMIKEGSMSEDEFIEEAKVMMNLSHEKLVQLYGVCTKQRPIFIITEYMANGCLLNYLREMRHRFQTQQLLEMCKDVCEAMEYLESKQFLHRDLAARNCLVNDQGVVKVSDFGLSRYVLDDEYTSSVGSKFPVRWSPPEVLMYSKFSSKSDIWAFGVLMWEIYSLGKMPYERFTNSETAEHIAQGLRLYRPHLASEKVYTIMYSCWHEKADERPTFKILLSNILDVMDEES

For `Cc1ccc(Nc2nccc(N(C)c3ccc4c(C)n(C)nc4c3)n2)cc1S(N)(=O)=O`, the inhibition ([1]; compound 0.02 µM) was 1.1%, the inhibition ([1]; compound 0.2 µM) was 25.2% and the inhibition ([2]; compound 0.02 µM) was -4.8%. It also gave an inhibition ([2]; compound 0.2 µM) of -1.2%, an inhibition ([3]; compound 0.02 µM) of 1.8% and an inhibition ([3]; compound 0.2 µM) of 2.9%. It also gave an inhibition ([4]; compound 0.02 µM) of -1.6%, an inhibition ([4]; compound 0.2 µM) of -2.2% and an inhibition ([5]; compound 0.02 µM) of -0.5%. It also gave an inhibition ([5]; compound 0.2 µM) of 0.8%, an inhibition ([6]; compound 0.02 µM) of 2.4% and an inhibition ([6]; compound 0.2 µM) of 3.1%. It also gave an inhibition ([7]; compound 0.02 µM) of -5%, an inhibition ([7]; compound 0.2 µM) of -2.8% and an inhibition ([8]; compound 0.02 µM) of -4.8%. For the same molecule, the inhibition ([8]; compound 0.2 µM) was -4.4%, the inhibition ([9]; compound 0.02 µM) was -4.2% and the inhibition ([9]; compound 0.2 µM) was 0.8%. The inhibition ([10]; compound 0.02 µM) was 1.2%, the inhibition ([10]; compound 0.2 µM) was 1.7% and the inhibition ([11]; compound 0.02 µM) was 6.5%. The inhibition ([11]; compound 0.2 µM) was 6%, the inhibition ([12]; compound 0.02 µM) was 2.5% and the inhibition ([12]; compound 0.2 µM) was -1.1%. The inhibition ([13]; compound 0.02 µM) was 2%, the inhibition ([13]; compound 0.2 µM) was 10.8% and the inhibition ([14]; compound 0.02 µM) was 2.6%. The inhibition ([14]; compound 0.2 µM) was 28.7%, the inhibition ([15]; compound 0.02 µM) was -1.5% and the inhibition ([15]; compound 0.2 µM) was 6.6%. It also gave an inhibition ([16]; compound 0.02 µM) of 1.7%, an inhibition ([16]; compound 0.2 µM) of 4.4% and an inhibition ([17]; compound 0.02 µM) of -2.3%. For the same molecule, the inhibition ([17]; compound 0.2 µM) was -2.2%, the inhibition ([18]; compound 0.02 µM) was -1.4% and the inhibition ([18]; compound 0.2 µM) was -1.9%. It also gave an inhibition ([19]; compound 0.02 µM) of -3.5%, an inhibition ([19]; compound 0.2 µM) of -1.8% and an inhibition ([20]; compound 0.02 µM) of 64.2%. For the same molecule, the inhibition ([20]; compound 0.2 µM) was 68.1%, the inhibition [21] was -4.7% and the inhibition ([22]; compound 0.02 µM) was 8.8%. It also gave an inhibition ([22]; compound 0.2 µM) of 39.2%, an inhibition ([23]; compound 0.02 µM) of -4.6% and an inhibition ([23]; compound 0.2 µM) of 2.7%. For the same molecule, the inhibition ([24]; compound 0.02 µM) was -11.7%, the inhibition ([24]; compound 0.2 µM) was 10.4% and the inhibition ([25]; compound 0.02 µM) was -4.8%. The inhibition ([25]; compound 0.2 µM) was -5.9%, the inhibition ([26]; compound 0.02 µM) was 5.4% and the inhibition ([26]; compound 0.2 µM) was 12%. The inhibition ([27]; compound 0.02 µM) was -6.3%, the inhibition ([27]; compound 0.2 µM) was -5% and the inhibition ([28]; compound 0.02 µM) was 10.3%. It also gave an inhibition ([28]; compound 0.2 µM) of 47.3%, an inhibition ([29]; compound 0.02 µM) of -0.2% and an inhibition ([29]; compound 0.2 µM) of -1.1%. It also gave an inhibition ([30]; compound 0.02 µM) of 2.8%, an inhibition ([30]; compound 0.2 µM) of 2.1% and an inhibition ([31]; compound 0.02 µM) of -0.7%. For the same molecule, the inhibition ([31]; compound 0.2 µM) was -4.1%, the inhibition ([32]; compound 0.02 µM) was 6.2% and the inhibition ([32]; compound 0.2 µM) was 7.2%. For the same molecule, the inhibition ([33]; compound 0.02 µM) was -2% and the inhibition ([33]; compound 0.2 µM) was 8.3%.
